These are literature values, as cited in patent US10815533B2, “Biomarker for diagnosing anticancer drug resistance of gastric cancer and use thereof” (SAMSUNG LIFE PUBLIC WELFARE FOUNDATION, priority 2017, dated 2020).

Data set [1] concerns gastric cancer cell line in which FGFR2 was amplified. As to conditions: preclinical result.
A further data set has as its system FGFR2b+gastric cancer. The following applies: phase I clinical trial, 3 out of 9.

With `CCN1CCN(c2ccc(Nc3cc(N(C)C(=O)Nc4c(Cl)c(OC)cc(OC)c4Cl)ncn3)cc2)CC1` [BGJ398], the antitumor efficacy entry in data set [1] is reported as “strong antitumor efficacy”.

B1: FPA144: selective monoclonal antibody against the FGFR2b subtype (antibody, chains of the INN, looked up, V domains shown)
VH: QVQLVQSGAEVKKPGSSVKVSCKASGYIFTTYNVHWVRQAPGQGLEWIGSIYPDNGDTSYNQNFKGRATITADKSTSTAYMELSSLRSEDTAVYYCARGDFAYWGQGTLVTVSS
VL: DIQMTQSPSSLSASVGDRVTITCKASQGVSNDVAWYQQKPGKAPKLLIYSASYRYTGVPSRFSGSGSGTDFTFTISSLQPEDIATYYCQQHSTTPYTFGQGTKLEIK
For B1, the response rate with FGFR2b+gastric cancer is 33%.
